Experiments:
[1] = target: T1, ENPP1 protein (Homo sapiens (Human), UniProt P22413); assay: ENPP1 enzymatic assay with TMP substrate (FIG. 8); assay type: biochemical; conditions: 5.0 ng ENPP1, 150 μM TMP substrate
Method: FIG. 8 depicts results of a similar experiment. 5.0 ng of ENPP1 protein exposed to increasing doses of inhibitor (compound 78 or compound 107-02) for 10 minutes in solution, followed by the addition of 150 μM of TMP substrate. The assay was then incubated for 20 minutes and then read at 405 nm on the envision plate reader.
Target sequence in this assay (P22413 whole entry, looked up): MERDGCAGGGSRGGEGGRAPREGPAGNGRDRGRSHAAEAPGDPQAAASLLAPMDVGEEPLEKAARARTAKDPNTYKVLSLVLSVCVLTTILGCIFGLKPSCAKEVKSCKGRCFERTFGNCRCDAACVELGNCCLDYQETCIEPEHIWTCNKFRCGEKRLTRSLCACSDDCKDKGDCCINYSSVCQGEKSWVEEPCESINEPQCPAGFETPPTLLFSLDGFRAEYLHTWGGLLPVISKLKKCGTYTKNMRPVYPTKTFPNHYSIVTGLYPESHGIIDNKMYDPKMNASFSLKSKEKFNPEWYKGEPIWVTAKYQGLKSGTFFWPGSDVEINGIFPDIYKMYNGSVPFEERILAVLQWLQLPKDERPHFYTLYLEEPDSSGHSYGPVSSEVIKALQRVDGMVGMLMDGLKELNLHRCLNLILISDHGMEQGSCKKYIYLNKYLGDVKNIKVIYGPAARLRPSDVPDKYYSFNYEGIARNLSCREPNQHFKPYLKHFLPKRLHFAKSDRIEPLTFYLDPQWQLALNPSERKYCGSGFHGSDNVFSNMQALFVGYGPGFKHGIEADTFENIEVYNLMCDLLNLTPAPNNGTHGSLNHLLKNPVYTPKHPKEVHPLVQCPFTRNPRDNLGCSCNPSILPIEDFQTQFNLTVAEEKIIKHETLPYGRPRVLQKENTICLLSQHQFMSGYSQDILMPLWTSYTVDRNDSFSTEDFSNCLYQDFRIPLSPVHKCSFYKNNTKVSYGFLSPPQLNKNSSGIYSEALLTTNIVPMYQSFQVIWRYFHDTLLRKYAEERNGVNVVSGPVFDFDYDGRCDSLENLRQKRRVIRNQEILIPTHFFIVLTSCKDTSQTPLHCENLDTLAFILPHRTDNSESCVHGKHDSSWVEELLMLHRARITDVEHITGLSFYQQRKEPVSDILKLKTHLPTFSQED

[2] = system: B16F10 tumor; assay: Anti-tumor efficacy in B16F10 (melanoma) syngeneic model; assay type: in vivo, C57BL/6 mice
Excerpt: Animals: Female C57BL/6 (4-6 week's age from Taconic).
The B16F10 cells were propagated in DMEM cell culture medium containing 10% Fetal Bovine Serum. Cells were harvested in logarithmic growth phase and implanted subcutaneously ([…]) in the lower abdomen of mice. Tumor growth was monitored daily and after the tumors had reached 80 to 100 mm3, mice were randomized into groups consisting of 8 animals per group. Animals were euthanized when tumors reached around 2000 mm^3 or treatment regime completed or 20% of body weight loss, or developed ulceration and necrosis. Upon termination, tumor samples and blood were collected and analyzed for biomarkers.

[3] = system: Saos-2 Cells; assay: ENPP1 Mineralization Assay; assay type: cell-based; conditions: FIG. 9, mineralization components for 3 days
[4] = target: T1, ENPP1 protein; assay: ENPP1 Thermal Shift Assay (Example 1); assay type: binding; conditions: Table 2, FIG. 7, 100 μM drug, 1.0 μg ENPP1
Target sequence in this assay (P22413 whole entry, looked up, change not shown): as the sequence (P22413 whole entry, looked up) above

COc1ccc(NC(=O)CSc2nc3c(C)c(C#N)ncc3[nH]2)cc1O [Compound 78, 2-((6-Cyano-7-methyl-3H-imidazo[4,5-c]pyridin-2-yl)thio)-N-(3-hydroxy-4-methoxyphenyl) acetamide]
enzymatic activity [1]: significant decrease
B16F10 tumor growth inhibition ([2]; 30 mg/kg dose (FIG. 6A / FIG. 13A)): 28%
B16F10 tumor growth inhibition ([2]; FIG. 6B / FIG. 13B, dose and route not stated): 27%
total mineralization [3]: significant decrease
Tm (° C.) ([4]; NT 60.05): 61.16 °C
ΔTm at 100 µM ([4]; read-out: ΔTm (° C.)): 1.11 °C

Source: patent US11142524B2, “Substituted-3H-imidazo[4,5-c]pyridine and 1H-pyrrolo[2,3-c]pyridine series of novel Ectonucleotide Pyrophosphatase/Phosphodiesterase-1 (ENPP1) and stimulator for interferon genes (STING) modulators as cancer immunotherapeutics” (Stingray Therapeutics, Inc., priority 2018, dated 2021)
